US20250221966A1, “RXFP1 AGONISTS” (BRISTOL-MYERS SQUIBB COMPANY, priority 2021, published 2025)

Molecular target: T1, human RXFP1 (Homo sapiens, UniProt Q9HBX9)
T1 construct: expressed in transfected cells
T1 sequence (Q9HBX9 1-757): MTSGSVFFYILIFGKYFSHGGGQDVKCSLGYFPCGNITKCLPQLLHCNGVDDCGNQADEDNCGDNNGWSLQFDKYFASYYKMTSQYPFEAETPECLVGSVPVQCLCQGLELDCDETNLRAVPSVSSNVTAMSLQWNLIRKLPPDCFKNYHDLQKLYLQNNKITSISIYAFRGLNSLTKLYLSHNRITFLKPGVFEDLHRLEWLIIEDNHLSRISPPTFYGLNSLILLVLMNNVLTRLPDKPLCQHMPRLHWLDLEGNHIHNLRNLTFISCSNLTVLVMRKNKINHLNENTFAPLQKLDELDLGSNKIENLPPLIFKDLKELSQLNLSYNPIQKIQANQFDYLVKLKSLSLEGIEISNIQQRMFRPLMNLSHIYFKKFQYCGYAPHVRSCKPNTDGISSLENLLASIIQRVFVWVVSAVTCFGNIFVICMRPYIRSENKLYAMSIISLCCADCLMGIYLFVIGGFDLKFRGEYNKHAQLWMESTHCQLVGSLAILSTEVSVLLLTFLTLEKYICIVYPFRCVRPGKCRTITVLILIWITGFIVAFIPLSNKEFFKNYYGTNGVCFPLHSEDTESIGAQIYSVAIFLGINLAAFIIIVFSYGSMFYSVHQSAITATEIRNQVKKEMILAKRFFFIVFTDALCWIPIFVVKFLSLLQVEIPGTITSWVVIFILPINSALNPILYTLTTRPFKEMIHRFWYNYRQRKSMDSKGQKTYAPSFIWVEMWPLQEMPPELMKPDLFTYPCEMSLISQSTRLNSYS
Experiment: RXFP1 cAMP assay (hRXFP1 HEK293 cAMP assay, HTRF)
Assay type: cell-based
Details: HEK293 cells stably expressing human RXFP1, 30 min at room temperature, read-out: cAMP hRXFP1 HEK293 Assay EC50
Outline: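 Potency and activity come from a four-parameter logistic fit of cAMP against compound concentration, tested from 0.010 nM up to 50 μM. The assay uses HEK293 cells stably expressing human RXFP1, incubated 30 min at ambient temperature with phosphodiesterase inhibitor IBMX present.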

Q: Which EC50 does the source give for `COc1ccc(-c2cc(C(=O)N3CCCC3)ccc2F)cc1C(=O)N[C@@H]1C2CCC(/C2=C/c2cnoc2)[C@@H]1C(=O)Nc1ccc(F)c(C(F)(F)F)c1` (stereo partly drawn) [compound 191] here?
A: 42 nM

Q: With `COc1ccc([C@H]2CO[C@@H]3[C@H]2OC[C@H]3O)cc1C(=O)N[C@H]1[C@@H](C(=O)Nc2ccc(F)c(C(F)(F)F)c2)[C@H]2CC[C@@H]1/C2=C\C1CC1` [compound 638] as the compound, how does the EC50 read?
A: 207 nM

Q: `COc1ccc(C2=NOC3COCC23)cc1C(=O)N[C@H]1[C@@H](C(=O)NCC2C(C)(C)C2(C)C)[C@H]2CC[C@@H]1/C2=C\C1CC1` (stereo partly drawn) [compound 586] was tested. Which EC50 did it give?
A: 79.1 nM

Q: Which EC50 does the source give for `COc1cc(F)c(F)cc1C(=O)N[C@@H]1C2CCC(/C2=C/c2cccc(C(F)(F)F)c2)[C@@H]1C(=O)Nc1ccc(F)c(C(F)(F)F)c1` (stereo partly drawn) [compound 25] here?
A: 200 nM

Q: For `COc1cc(F)c(F)cc1C(=O)N[C@@H]1C2CCC(/C2=C/c2ccco2)[C@@H]1C(=O)Nc1ccc(F)c(C(F)(F)F)c1` (stereo partly drawn) [compound 123], which EC50 is on record?
A: 210 nM

Q: With `COc1ccc(C2=NOC3COCC23)cc1C(=O)N[C@H]1[C@@H](C(=O)NCc2c(Cl)cccc2Cl)[C@H]2CC[C@@H]1/C2=C\C1CC1` (stereo partly drawn) [compound 570] as the compound, how does the EC50 read?
A: 62.7 nM

Q: For `COc1ccc(C2=NOC3CC(C(O)C(F)(F)F)CC23)cc1C(=O)N[C@H]1[C@@H](C(=O)Nc2ccc(F)c(C(F)(F)F)c2)[C@H]2CC[C@@H]1/C2=C\C1CC1` (single isomer, unassigned) [Example 530], which EC50 is on record?
A: 22.7 nM

Q: How did the EC50 turn out when `COc1ccc(-c2cc(C(NC(=O)C3CCOCC3)C(=O)O)ccc2F)cc1C(=O)N[C@@H]1C2CCC(/C2=C/C(F)(F)F)[C@@H]1C(=O)Nc1ccc(F)c(C(F)(F)F)c1` (stereo partly drawn) [compound 239] was run?
A: 1 nM

Q: `COc1ccc(N2CCCC(CO)C2)cc1C(=O)NC1C2CCC(/C2=C/C(F)(F)F)C1C(=O)Nc1ccc(F)c(C(F)(F)F)c1` (stereo in doubt) [Example 329, (1R,2R,3R,4R,Z)—N-(4-fluoro-3-(trifluoromethyl)phenyl)-3-(5-(3-(hydroxymethyl)piperidin-1-yl)-2-methoxybenzamido)-7-(2,2,2-trifluoroethylidene)bicyclo[2.2.1]heptane-2-carboxamide] was tested. Which EC50 did it give?
A: 4810 nM

Q: For `COc1ccc(C2=NOC3CC(C)(CO)CC23)cc1C(=O)N[C@H]1[C@@H](C(=O)Nc2ccc(F)c(C(F)(F)F)c2)[C@H]2CC[C@@H]1/C2=C\C1CCCC1` (stereo partly drawn) [compound 748], which EC50 is on record?
A: 3.3 nM

Q: `COc1ccc(C2=NOC3COCC23)cc1C(=O)N[C@H]1[C@@H](C(=O)NC2CC3(C2)CC(F)(F)C3)[C@H]2CC[C@@H]1/C2=C\C1CC1` (stereo partly drawn) [compound 605] was tested. Which EC50 did it give?
A: 118 nM

Q: How did the EC50 turn out when `O=C(N[C@H]1[C@@H](C(=O)Nc2ccc(F)c(C(F)(F)F)c2)[C@H]2CC[C@@H]1/C2=C\C1CC1)c1cc(C2=NOC3CC(CO)CC23)cc(F)c1OCC(F)F` (stereo partly drawn) [compound 789] was run?
A: 4.4 nM

Q: Which EC50 does the source give for `COc1cc(F)c(F)cc1C(=O)N[C@@H]1C2CCC(/C2=C/C(=O)OC(C)(C)C)[C@@H]1C(=O)Nc1ccc(F)c(C(F)(F)F)c1` (stereo partly drawn) [compound 8] here?
A: 110 nM

Q: Which EC50 does the source give for `COc1ccc(-c2cc([C@H](OC(=O)NC3CC3)C(F)(F)F)ccc2F)cc1C(=O)N[C@H]1[C@@H](C(=O)Nc2ccc(F)c(C(F)(F)F)c2)[C@H]2CC[C@@H]1/C2=C\C1CCCC1` [compound 927] here?
A: 0.4 nM

Q: How did the EC50 turn out when `CONC(=O)OC(c1ccc(F)c(-c2ccc(OC)c(C(=O)N[C@@H]3C4CCC(/C4=C/C4CC4)[C@@H]3C(=O)Nc3ccc(F)c(C(F)(F)F)c3)c2)c1)C(F)(F)F` (stereo partly drawn) [compound 214] was run?
A: 2 nM

Q: Which EC50 does the source give for `COc1ccc(C2=NO[C@H]3C[C@H](CO)C[C@@H]23)cc1C(=O)N[C@H]1[C@@H](C(=O)Nc2ccc(F)c(C(F)(F)F)c2)[C@H]2CC[C@@H]1/C2=C\C1C[C@@H](F)[C@@H](F)C1` (stereo partly drawn) [compound 828] here?
A: 3.3 nM

Q: With `COc1ccc(C2=NOC3COCC23)cc1C(=O)N[C@H]1[C@@H](C(=O)NC2CC=CC2)[C@H]2CC[C@@H]1/C2=C\C1CC1` (stereo partly drawn) [compound 559] as the compound, how does the EC50 read?
A: 44.9 nM

Q: `COc1ccc(-c2cccc3c2CC(=O)N3)cc1C(=O)N[C@H]1[C@@H](C(=O)Nc2ccc(F)c(C(F)(F)F)c2)[C@H]2CC[C@@H]1/C2=C\C1CC1` [compound 890] was tested. Which EC50 did it give?
A: 2.4 nM
